Assay results: patent publication US4130647A, “Methods for treating congestive heart failure and ischemic heart disease” (priority 1977, dated 1978)
Several values for one entry are separate records, joined by “and”; a condition that tells them apart may be missing. Identical values can stand only once.

Tested on: patients with chronic left sided congestive heart failure
Assay: Treadmill exercise duration until marked dyspnea, trimazosin (Example 3)
Type: in vivo, human
Settings: for improvement in exercise duration vs. placebo: p<0.025
Source text: Sixteen men between 41 and 66 years of age with chronic left sided congestive heart failure were subjects. Twelve patients had coronary heart disease with an old healed myocardial infarction, one patient had alcoholic cardiomyopathy, and three patients had idiopathic cardiomyopathy as the cause of their chronic heart failure. All 16 patients had cardiomegaly on physical examination and on their chest roentgenogram, a left ventricular third heart sound heard by auscultation, and evidence of pulmonary venous congestion on their chest roentgenogram. Their baseline standing blood pressures ranged between 114 and 150 mm. Hg. systolic and 72 and 100 mm. Hg. diastolic.
The patients received digitalis and diuretic therapy for 6 to 48 months. Their dose of digitalis and diuretic was not changed during this study. Except for potassium chloride, no other medications were taken by any of the 16 patients during this study. All patients signed informed consent forms.
After baseline measurements, all 16 patients received one capsule of single-blind placebo three times daily for two weeks. The patients then received in a double-blind, randomized study trimazosin or placebo for six weeks. Eight patients received one placebo capsule three times daily for weeks one and two, two placebo capsules three times daily for weeks three and four, and three placebo capsules three times daily for weeks five and six of the double-blind period. Seven patients received one 50 mg. trimazosin capsule three times daily for weeks one and two, two 50 mg. trimazosin capsules three times daily for weeks three and four, and three 50 mg. trimazosin capsules three times daily for weeks five and six of the double-blind period. One patient (patient number five on trimazosin) received one 50 mg. trimazosin capsule three times daily for 32 days. Their trimazosin dose was not increased after two weeks of this dose because their standing systolic blood pressure was 104/70 mm. Hg.
Two practice treadmill tests were performed by all patients prior to the baseline period. The patients performed a multi-stage uninterrupted treadmill exercise test until the onset of marked dyspnea in the baseline period, and approximately two hours after their morning dose of medication after two weeks of single-blind placebo, after three weeks of double-blindmedication, and after six weeks of double-blind medication. The patients exercised at a treadmill speed of 1.7 m.p.h. and a treadmill grade of 0% for the first 3 min., a treadmill speed of 1.7 m.p.h. and a treadmill grade of 10% for the next 3 min., at a treadmill speed of 2.5 m.p.h. and a treadmill grade of 12% for the third 3 min. period, and then at a treadmill speed of 3.4 m.p.h. and a treadmill grade of 14%.
The data listed in Tables 1-4 were analyzed using Student's t test for independent means. Fisher's exact test was used to analyze the data on improvement of symptoms and the data on changes in roentgenographic evidence of pulmonary venous congestion.

SMILES: COc1cc2c(N)nc(N3CCN(C(=O)OCC(C)(C)O)CC3)nc2c(OC)c1OC [trimazosin, 2-hydroxy-2-methylpropyl 4-(4-amino-6,7,8-trimethoxy-2-quinazolinyl)-1-piperazinecarboxylate]
- Double-blind trimazosin (3 weeks) exercise time (300 mg. daily (patient 5: 150 mg. daily), individual patients): 180 s and 428 s and 398 s and 280 s and 298 s and 389 s and 476 s and 322 s
- Double-blind trimazosin (6 weeks) exercise time (450 mg. daily, individual patients): 232 s and 295 s and 406 s and 435 s and 627 s and 527 s and 363 s
- Change from average of baseline and placebo exercise times (3 weeks, 300 mg. daily (patient 5: 150 mg. daily), individual patients): +110%
- Double-blind trimazosin (3 weeks) exercise time, mean (3 weeks, mean, baseline/placebo average 255.5): 346.4 s
- improvement in exercise duration vs. placebo (3 weeks): significantly greater
- Change from average of baseline and placebo exercise times (6 weeks, 450 mg. daily, individual patients): +136% and +122%
- Double-blind trimazosin (6 weeks) exercise time, mean (6 weeks, 450 mg. daily, mean): 412.1 s
- improvement in exercise duration vs. placebo (6 weeks): significantly greater
